Biological target: T1, human CRF1 receptor (Homo sapiens, UniProt P34998)
T1 construct: expressed in transfected cells; host or cells: CHO cells (membrane fraction)
T1 sequence (P34998 24-415): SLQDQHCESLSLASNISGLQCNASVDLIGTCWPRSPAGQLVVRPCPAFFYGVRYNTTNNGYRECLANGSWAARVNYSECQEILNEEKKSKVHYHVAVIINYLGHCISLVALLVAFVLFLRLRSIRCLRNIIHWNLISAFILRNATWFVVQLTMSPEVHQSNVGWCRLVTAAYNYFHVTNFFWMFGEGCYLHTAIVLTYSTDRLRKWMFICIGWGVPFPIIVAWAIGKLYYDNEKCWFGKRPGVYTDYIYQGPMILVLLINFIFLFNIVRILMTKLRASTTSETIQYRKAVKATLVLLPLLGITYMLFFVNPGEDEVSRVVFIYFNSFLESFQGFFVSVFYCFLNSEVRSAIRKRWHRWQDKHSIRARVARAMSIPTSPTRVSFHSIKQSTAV
Assay: Measurement of CRF Binding Inhibitory Rate (receptor binding experiment with 125I-CRF)
Conditions: human CRF1 receptor expressing CHO cellular membrane fraction, 50 pM 125I-CRF, room temperature 1.5 hr, 0.05 nM to 10 μM of compound; read-out: IC50 values (CRF binding inhibition)
Experimental: Measurement of CRF Binding Inhibitory Rate
A receptor binding experiment was carried out using a human CRF1 receptor expressing CHO cellular membrane fraction and ovine CRF, [^125I]-tyr^0(^125I-CRF). 1000 nM of a test compound was incubated with 1 μg of human CREF receptor expressing CHO cellular membrane fraction and 50 pM of ^125I-CRF in a binding assay buffer (50 mM Tris-HCl, 5 mM EDTA, 10 mM MgCl2, 0.05% CHAPS, 0.1% BSA, 0.5 mM PMSF, 0.1 μg/mL pepstatin, 20 μg/mL leupeptin, pH 7.5). In addition, for measuring nonspecific binding (NSB), 0.1 μM unlabelled human Urocortin was incubated with 5 μg of human CRE receptor expressing CHO cellular membrane fraction and 50 pM of ^125I-CRF in a binding assay buffer. After a binding reaction was carried out at room temperature for 1.5 hr, the membrane was entrapped on a glass filter (UniFilter plate GF-C/Perkin Elmer) by suction filtration using a cell harvester (Perkin Elmer), and washed with ice-cooled 50 mM Tris-HCl (pH 7.5). After drying the glass filter, a liquid scintillation cocktail (Microscinti 0, Perkin Elmer) was added, and the radioactivity of ^125I-CRF remaining on a glass filter was measured using Topcount (Perkin Elmer).
(TB−SB)/(TB−NSB)×100 (SB: radioactivity when a compound is added, TB: maximum binding radioactivity, NSB: nonspecific binding radioactivity) were calculated to obtain binding inhibitory rates under the range of the presence from 0.05 nM to 10 μM of each compound. The IC50 values were calculated by using GraphPad Prism software.

SMILES	IC50 [nM]
CCC(NC(C)=O)c1ccc(Cl)c2nc3n(c12)CCCN3c1c(C)cc(Cl)cc1Cl (stereo not shown) [Example 377, N-{1-[9-Chloro-1-(2,4-dichloro-6-methylphenyl)-1,2,3,4-tetrahydropyrimido[1,2-a]benzimidazol-6-yl]propyl}acetamide]	< 1000
CCC(O)c1ccc(Cl)c2nc3n(c12)CCCN3c1c(C)cc(Cl)cc1Cl (stereo not shown) [Example 379, 1-[9-Chloro-1-(2,4-dichloro-6-methylphenyl)-1,2,3,4-tetrahydropyrimido[1,2-a]benzimidazol-6-yl]propan-1-ol]	< 1000
C=CCCC(O)c1ccc(Cl)c2nc3n(c12)CCCN3c1c(C)cc(Cl)cc1Cl (stereo not shown) [Example 381, 1-[9-Chloro-1-(2,4-dichloro-6-methylphenyl)-1,2,3,4-tetrahydropyrimido[1,2-a]benzimidazol-6-yl]pent-4-en-1-ol]	< 1000
C=CCC(O)c1ccc(Cl)c2nc3n(c12)CCCN3c1c(C)cc(Cl)cc1Cl (stereo not shown) [Example 383, 1-[9-Chloro-1-(2,4-dichloro-6-methylphenyl)-1,2,3,4-tetrahydropyrimido[1,2-a]benzimidazol-6-yl]but-3-en-1-ol]	< 1000
CCC(c1ccc(Cl)c2nc3n(c12)CCCN3c1ccc(Cl)cc1Cl)N(C)S(C)(=O)=O (stereo not shown) [Example 385, N-{1-[9-Chloro-1-(2,4-dichlorophenyl)-1,2,3,4-tetrahydropyrimido[1,2-a]benzimidazol-6-yl]propyl}-N-methylmethanesulfonamide]	< 1000
Cc1cc(Cl)cc(Cl)c1N1CCCn2c1nc1c(Cl)ccc(C(O)CC3CC3)c12 (stereo not shown) [Example 386, 1-[9-Chloro-1-(2,4-dichloro-6-methylphenyl)-1,2,3,4-tetrahydropyrimido[1,2-a]benzimidazol-6-yl]-2-cyclopropylethanol]	< 1000
CCC(c1ccc(Cl)c2nc3n(c12)CCCN3c1ccc(Cl)cc1Cl)N(C)C(C)=O (stereo not shown) [Example 388, N-{1-[9-Chloro-1-(2,4-dichlorophenyl)-1,2,3,4-tetrahydropyrimido[1,2-a]benzimidazol-6-yl]propyl}-N-methylacetamide]	< 1000
CCC(c1ccc(Cl)c2nc3n(c12)CCCN3c1ccc(Cl)cc1Cl)C(F)F (stereo not shown) [Example 403, 9-Chloro-1-(2,4-dichlorophenyl)-6-[1-(difluoromethyl)propyl]-1,2,3,4-tetrahydropyrimido[1,2-a]benzimidazole]	< 1000
CCC(c1ccc(Cl)c2nc3n(c12)CCCN3c1ccc(Cl)cc1Cl)C(C)O (stereo not shown) [Example 404, 3-[9-Chloro-1-(2,4-dichlorophenyl)-1,2,3,4-tetrahydropyrimido[1,2-a]benzimidazol-6-yl]pentan-2-ol]	< 1000
CCC(C(C)=O)c1ccc(Cl)c2nc3n(c12)CCCN3c1ccc(Cl)cc1Cl (stereo not shown) [Example 405, 3-[9-Chloro-1-(2,4-dichlorophenyl)-1,2,3,4-tetrahydropyrimido[1,2-a]benzimidazol-6-yl]pentan-2-one]	< 1000
FC(F)(F)C(Cl)c1ccc(Cl)c2nc3n(c12)CCCN3c1c(Cl)cc(Cl)cc1Cl (stereo not shown) [Example 412, 9-Chloro-6-(1-chloro-2,2,2-trifluoroethyl)-1-(2,4,6-trichlorophenyl)-1,2,3,4-tetrahydropyrimido[1,2-a]benzimidazole]	< 1000
NC(c1ccc(Cl)c2nc3n(c12)CCCN3c1c(Cl)cc(Cl)cc1Cl)C(F)(F)F (stereo not shown) [Example 414, 1-[9-Chloro-1-(2,4,6-trichlorophenyl)-1,2,3,4-tetrahydropyrimido[1,2-a]benzimidazol-6-yl]-2,2,2-trifluoroethanamine]	< 1000
CC(=O)NC(c1ccc(Cl)c2nc3n(c12)CCCN3c1c(Cl)cc(Cl)cc1Cl)C(F)(F)F (stereo not shown) [Example 415, N-{1-[9-Chloro-1-(2,4,6-trichlorophenyl)-1,2,3,4-tetrahydropyrimido[1,2-a]benzimidazol-6-yl]-2,2,2-trifluoroethyl}acetamide]	< 1000
CCC(OC(=O)CC(C)(C)O)c1ccc(Cl)c2nc3n(c12)CCCN3c1ccc(Cl)cc1Cl (stereo not shown) [Example 444, 1-[9-Chloro-1-(2,4-dichlorophenyl)-1,2,3,4-tetrahydropyrimido[1,2-a]benzimidazol-6-yl]propyl 3-hydroxy-3-methylbutanoate]	< 1000
FC(F)COC(c1ccc(Cl)c2nc3n(c12)CCCN3c1ccc(Cl)cc1Cl)C1CC1 (stereo not shown) [Example 464, 9-Chloro-6-[cyclopropyl(2,2-difluoroethoxy)methyl]-1-(2,4-dichlorophenyl)-1,2,3,4-tetrahydropyrimido[1,2-a]benzimidazole]	< 1000
COc1ccc(N2CCCn3c2nc2c(Cl)ccc(C(O)(C4CC4)C4CC4)c23)c(Cl)c1 [Example 465, [9-Chloro-1-(2-chloro-4-methoxyphenyl)-1,2,3,4-tetrahydropyrimido[1,2-a]benzimidazol-6-yl](dicyclopropyl)methanol]	< 1000
CCC(OCC(F)(F)F)c1ccc(Cl)c2nc3n(c12)CCCN3c1ccc(OC)cc1Cl (stereo not shown) [Example 466, 9-Chloro-1-(2-chloro-4-methoxyphenyl)-6-[1-(2,2,2-trifluoroethoxy)propyl]-1,2,3,4-tetrahydropyrimido[1,2-a]benzimidazole]	< 1000
CCOC(c1ccc(Cl)c2nc3n(c12)CCCN3c1ccc(OC)cc1Cl)C(F)(F)F (stereo not shown) [Example 470]	< 1000
COc1ccc(N2CCCn3c2nc2c(Cl)ccc(C(OC)C(F)(F)F)c23)c(Cl)c1 (stereo not shown) [Example 471, 9-Chloro-1-(2-chloro-4-methoxyphenyl)-6-(2,2,2-trifluoro-1-methoxyethyl)-1,2,3,4-tetrahydropyrimido[1,2-a]benzimidazole]	< 1000
COc1ccc(N2CCCn3c2nc2c(Cl)ccc(C(OCC(F)F)C4CC4)c23)c(Cl)c1 (stereo not shown) [Example 472, 9-Chloro-1-(2-chloro-4-methoxyphenyl)-6-[cyclopropyl(2,2-difluoroethoxy)methyl]-1,2,3,4-tetrahydropyrimido[1,2-a]benzimidazole]	< 1000
CCC(OC1CC1)c1ccc(Cl)c2nc3n(c12)CCCN3c1ccc(OC)cc1Cl (stereo not shown) [Example 474, 9-Chloro-1-(2-chloro-4-methoxyphenyl)-6-[1-(cyclopropyloxy)propyl]-1,2,3,4-tetrahydropyrimido[1,2-a]benzimidazole]	< 1000
CC(=O)NC(c1ccc(Cl)c2nc3n(c12)CCCN3c1ccc(Cl)cc1Cl)C(F)(F)F (stereo not shown) [Example 476, N-{1-[9-chloro-1-(2,4-dichlorophenyl)-1,2,3,4-tetrahydropyrimido[1,2-a]benzimidazol-6-yl]-2,2,2-trifluoroethyl}acetamide]	< 1000
Cc1cc(S(C)(=O)=O)ccc1N1CCCn2c1nc1c(Cl)ccc(C(OC(F)F)C(F)(F)F)c12 (stereo not shown) [Example 477, 9-Chloro-6-[1-(difluoromethoxy)-2,2,2-trifluoroethyl]-1-[2-methyl-4-(methylsulfonyl)phenyl]-1,2,3,4-tetrahydropyrimido[1,2-a]benzimidazole]	< 1000
CCC(OC(=O)C(C)C)c1ccc(Cl)c2nc3n(c12)CCCN3c1ccc(Cl)cc1Cl (stereo not shown) [Example 480, 1-[9-Chloro-1-(2,4-dichlorophenyl)-1,2,3,4-tetrahydropyrimido[1,2-a]benzimidazol-6-yl]propyl 2-methylpropanoate]	< 1000
CCC(OC(=O)C(C)(C)C)c1ccc(Cl)c2nc3n(c12)CCCN3c1ccc(Cl)cc1Cl (stereo not shown) [Example 481, 1-[9-Chloro-1-(2,4-dichlorophenyl)-1,2,3,4-tetrahydropyrimido[1,2-a]benzimidazol-6-yl]propyl 2,2-dimethylpropanoate]	< 1000
CCN(CC)c1cccc2nc3n(c12)CCC(=O)NC3c1ccc(Cl)cc1Cl (stereo not shown) [Example 487, 1-(2,4-Dichlorophenyl)-7-(diethylamino)-1,2,4,5-tetrahydro-3H-[1,4]diazepino[1,2-a]benzimidazol-3-one]	< 1000
CCN(CC)c1cccc2nc3n(c12)CCC=C3c1ccc(Cl)cc1Cl [Example 492, 4-(2,4-Dichlorophenyl)-N,N-diethyl-1,2-dihydropyrido[1,2-a]benzimidazol-9-amine]	< 1000
CCN(CC)c1cc(F)cc2nc3n(c12)CCCOC3c1ccc(Cl)cc1Cl (stereo not shown) [Example 494, 1-(2,4-Dichlorophenyl)-N,N-diethyl-9-fluoro-4,5-dihydro-1H,3H-[1,4]oxazepino[4,3-a]benzimidazol-7-amine]	< 1000
